The source made the active and inactive calls. The rule behind the calls is not given here.

One test concerns Plasmodium berghei. Briefly: Antiplasmodial activity against Plasmodium berghei infected in po dosed mouse assessed as reduction in parasitemia administered qd for 2 days relative to vehicle-treated control. The test is classed as functional.
Details: not given
With `CCC(C)(C)N[C@@H](C)[C@@H](O)c1ccc(C(F)(F)F)cc1` (racemic) [listing 1 of 2 here], the “inhibition (INH)” value stood at 64%.

`C[C@H](NC(C)(C)C)[C@@H](O)c1ccc(Cl)c(C(F)(F)F)c1` (racemic) [listing 1 of 2 here]: the “inhibition (INH)” value is listed as 76%.

System in another test: not listed separately
Put plainly: Inhibition of beta-hematin formation up to 100 uM.
Details: not given
For the molecule `CCC(C)(C)N[C@@H](C)[C@@H](O)c1ccc(C(F)(F)F)cc1` (racemic) [listing 2 of 2 here], the inhibition result is “inactive”.

As for `C[C@H](NC(C)(C)C)[C@@H](O)c1ccc(Cl)c(C(F)(F)F)c1` (racemic) [listing 2 of 2 here], the inhibition entry was “inactive”.

The next test deals with Plasmodium falciparum. Put plainly: Antiplasmodial activity against ring stage Plasmodium falciparum 3D7A infected in erythrocytes incubated for 24 hrs prior to [3H]hypoxanthine incorporation measured after 24 hrs.
Details: not given
The test is classed as functional, organism-based.
Broadly, the IC50 is the concentration that inhibits the measured activity by half. Higher therefore signals lower potency. As for `CCC(C)(C)N[C@@H](C)[C@@H](O)c1ccc(C(F)(F)F)cc1`, the IC50 came to 1400 nM. That is a single-digit micromolar value. In the case of `CCC(C)(C)N[C@@H](C)[C@@H](O)c1ccc(Cl)c(Cl)c1`, the IC50 worked out at 500 nM. Against the preceding molecule, the IC50 is about 2.8-fold lower. The same measure, in the same setting: the result for `C[C@H](NC(C)(C)C)[C@@H](O)c1ccc(Cl)c(C(F)(F)F)c1` reads 600 nM; that for `CCC(C)(C)N[C@@H](C)[C@@H](O)c1ccc(C(F)(F)F)cc1` (racemic) [listing 1 of 2 here], 400 nM. Still for that read-out and setting: the result for `CCC(C)(C)N[C@@H](C)[C@@H](O)c1ccc(Cl)c(Cl)c1` (racemic) reads 200 nM.

The test is the same for the next values; noted with them: Plasmodium falciparum, 3D7A.
The molecule `CCC(C)(C)N[C@H](C)[C@H](O)c1ccc(C(F)(F)F)cc1` yielded an IC50 of 500 nM. That is a sub-micromolar value.

For the molecule `C[C@@H](NC(C)(C)C)[C@H](O)c1ccc(Cl)c(C(F)(F)F)c1`, the IC50 was determined as 300 nM. Molecule `CCC(C)(C)N[C@H](C)[C@H](O)c1ccc(Cl)c(Cl)c1` returned an IC50 of 400 nM. Still for that read-out and setting: the result for `CC(NC(C)(C)C)C(O)c1ccccc1` (racemic) reads > 5000 nM. On the same count and under the same terms, then `C[C@H](NC(C)(C)C)[C@H](O)c1ccc(Cl)c(Cl)c1` (racemic), with > 5000 nM; and `CC(C)(C)NCC(O)c1ccc(Cl)c(Cl)c1` (racemic), with > 5000 nM; and `OC(CNCc1ccccc1)c1ccc(Cl)c(Cl)c1` (racemic), with 700 nM.

For the molecule `Cc1ccc2ccccc2c1CNCC(O)c1ccc(Cl)c(Cl)c1` (racemic), the IC50 is > 5000 nM. For the molecule `CCC(C)(C)N[C@@H](C)[C@H](O)c1ccc(C(F)(F)F)cc1` (racemic), the IC50 was > 5000 nM. Molecule `CCC(C)(C)N[C@@H](C)[C@H](O)c1ccc(Cl)c(Cl)c1` (racemic) returned an IC50 of 3900 nM.

`C[C@H](NC(C)(C)C)[C@@H](O)c1ccc(Cl)c(Cl)c1` (racemic) yielded an IC50 of 900 nM. `C[C@H](NC(C)(C)C)[C@@H](O)c1ccc(Cl)c(C(F)(F)F)c1` (racemic) [listing 1 of 2 here] displayed an IC50 of 500 nM. `OC(CNC1CCCCCCC1)c1ccc(Cl)c(Cl)c1` (racemic) gave an IC50 of 70 nM. Still for that read-out and setting: the result for `OC(CNC1CCCCCC1)c1ccc(Cl)c(Cl)c1` (racemic) reads 160 nM; that for `CC(NC(C)(C)C)C(O)c1ccc(Cl)c(C(F)(F)F)c1` (racemic), 4300 nM. `OC(CNC1CCCCC1)c1ccc(Cl)c(Cl)c1` (racemic) showed an IC50 of 720 nM. Still for that read-out and setting: the result for `C[C@H](N)[C@@H](O)c1ccc(C(F)(F)F)cc1` (relative stereo) reads > 5000 nM; that for `CCC(C)(C)N(C)[C@@H](C)[C@@H](O)c1ccc(C(F)(F)F)cc1` (relative stereo), > 5000 nM.

On to `C[C@H](Nc1ccccc1)[C@@H](O)c1ccc(C(F)(F)F)cc1` (relative stereo), for which the half-inhibitory concentration (IC50) was found to be 5000 nM.

Take `C[C@H](NC1CCCCC1)[C@@H](O)c1ccc(C(F)(F)F)cc1` (relative stereo): the IC50 was found to be 5000 nM. That is a single-digit micromolar value.

System in the next test: not listed separately
Briefly: Inhibition of beta-hematin formation.
Details: not given
On to `O[C@@H](c1cc(C(F)(F)F)nc2c(C(F)(F)F)cccc12)[C@H]1CCCCN1` (relative stereo) [(S,R)-MEFLOQUINE], for which the IC50 was 12200 nM.
